Assays:
[1] = system: TNF-α induced CD 54, Intercellular Adhesion Molecule (ICAM-1) expression by Human Umbilical Vein Endothelial Cells (HUVEC); test: TNF-α induced ICAM-1 expression by HUVEC (ELISA); assay type: cell-based; conditions: TNF-α 0.5 ng/ml
Description: The effects of NAC on the expression of the TNF-α induced CD 54, Intercellular Adhesion Molecule (ICAM-1) by Human Umbilical Vein Endothelial Cells (HUVEC) was assessed as follows.
DL-Buthionine sulphoximine (BSO) was used to pretreat the cells. BSO is an inhibitor of glutathione synthesis and therefore reduces the glutathione content of the HUVEC rendering them more susceptible to oxidative stress and mimicking the conditions implicated in chronic wounds. NAC was used as a treatment to inhibit the expression of ICAM-1 by interfering with the TNF-α mediated intracellular signalling.
HUVEC were seeded to wells of 96 well plates (5000 cells per well in 100 μl Endothelial Growth Medium (EGM)). The plates were allowed to grow until the cells reached 90% confluence. The medium was decanted from each plate and the following treatments (all volumes were 200 μl, performed in quadruplicate wells) where then applied to the HUVEC. […]
ICAM-1 expression, stimulated by inflammatory mediators such as tumour necrosis factor, can be detected on the surface of cells (endothelial cells, monocytes, T&B cells, keratinocytes, chondrocytes and epithelial cells) using ELISA techniques, as follows: […]
8. Stop the reaction when colour develops by the addition of 1M H2 SO4 (100 μl per well) and read the absorbance at 450 nm using a Dynatech (RTM) plate reader.

[2] = system: matrix metalloproteinases (MMP) from human wound fluid; test: MMP activity by gelatin SDS-PAGE zymography; assay type: biochemical; conditions: 18 hours at 37° C., pH 7.8
Description: The effect of NAC concentration on the activity of matrix metalloproteinases (MMP) from human wound fluid was assessed as follows.
The MMP activity was determined by gelatin SDS polyacrylamide gel electrophoresis (zymography) similar to that described by Heussen C. and Dowdle E. B. in Anal. Biochem. 102:196-202 (1980).
The experimental method was as follows:
1. Gel preparation. The following components were mixed thoroughly:
1. 5 ml 30% acrylamide/bis acrylamide (30 g acrylamide (Sigma A8887) plus 0.8 g N-N'-methylene bis-acrylamide (Sigma M7279) in 100 ml deionised water).
2. 6.05 ml deionised water.
3. 3.75 ml 1.5M Tris-HCl buffer.
4. 150 μl 10% sodium dodecyl sulphate (SDS. Fisons S/5200/53).
5. 1 ml warm (60° C.) gelatin (Sigma G9382) solution (7.5 mgml^-1).
6. Immediately prior to casting the gel 50 μl 10% ammonium persulphate (APS, Fisons A/6160/53) and 12.5 μl tetramethylethylenediamine (TEMED, Sigma T9281).
4.5 ml of the above mixture was added to the electrophoresis apparatus (Dual Mini Slab Kit, Atto Corporation), and covered with propanol saturated water. The gel was left gel to polymerise for at least 45 minutes. Then propanol solution was decanted and added to 1 ml of stacking gel solution (3.15 ml deionised water, 0.75 ml 30% acrylamide/bis-acrylamide, […] 1.5M Tris-HCl, 50 μl 10% SDS, 50 μl ammonium persulphate and 10 μl TEMED). Finally, a sample comb (8 lane comb) was inserted and the gel left to polymerise for at least 45 minutes.
2. Sample preparation: A matrix metalloprotease (MMP) sample (10% solution of human acute wound fluid diluted in MMP proteolysis buffer (see below)) was diluted 1:1 with sample buffer (6.3 ml 0.5M Tris-HCl pH 6.8, 2.5 ml glycerol, 0.5 g SDS, 16.2 ml deionised water and bromophenol blue to colour).
3. Sample loading and electrophoresis: 20 μl of the MMP samples were loaded into 8 lanes of the gel. The MMP's were separated for 1 hour at 20 mA/100V per gel until the dye front was almost at the bottom of the gel. The gel apparatus was then dismantled and the gel removed.
4. Proteolysis: Washed gels for 30 minutes with 100 ml 2.5% Triton X-100. The procedure was repeated three times. The gels were cut into slices consisting of two lanes per slice. The gel slices were incubated in 20 ml proteolysis buffer (50 mM Tris-HCl pH 7.8, 50 mM CaCl2, 0.5M NaCl) containing the following treatments (each treatment was adjusted to pH 7.8) for 18 hours at 37° C.: (1) proteolysis buffer alone; (2) N-acetyl cysteine (44 mM); (3) N-acetyl cysteine (4.4 mM); (4) N-acetyl cysteine (0.44 mM).
5. […]
The area of the individual zones of clearance on the gels, which are due to proteinase activity, were accurately measured by the Optilab (RTM) system. […]

## CC(=O)N[C@@H](CS)C(=O)O [NAC, N-acetyl-3-mercaptoalanine]
[1]; BSO (50 μM) pretreated HUVEC, NAC 1.1, 3.3, 10 mM, FIG. 1
  inhibition of ICAM-1 expression (concentration dependence): concentration-dependent inhibition
[1]; NAC 10, 3.3 and 1.1 mM, P<0.05, Students T-test, BSO pretreated HUVEC
  inhibition of ICAM-1 expression, all NAC concentrations: significant inhibition
[2]; 0.44 mM NAC
  inhibition of MMP activity: approximately 10%
[2]; 4.4 mM NAC solution
  inhibition of MMP activity: Approximately 70%
[2]; 44 mM NAC solution
  inhibition of MMP activity: substantially complete
[2]; NAC 0.44, 4.4, 44 mM, FIG. 2
  inhibition of MMP activity (concentration dependence): clear concentration-dependent inhibition

Reference: US6166084A, “Compositions for the treatment of chronic wounds” (Johnson & Johnson Medical, Ltd., priority 1996, dated 2000)
